Data as given in patent US7238659B2, “Reducing axon degeneration with proteasome inhibitors” (Children's Medical Center Corporation, priority 2003, dated 2007).
Square brackets hold non-standard residues; d marks the D form. Peptide text beside a SMILES is read from it. * marks the point of attachment. Sta = CC(C)C[C@H](N)[C@@H](O)CC(=O)O; Isovaleryl = CC(C)CC(=O)*; Nle = CCCC[C@H](N)C(=O)O; Nva = CCC[C@H](N)C(=O)O; Cbz = O=C(OCc1ccccc1)*; CH2F = FC*

Legend:
[1] = system: transected axons from cultured sympathetic neurons; assay: Wallerian degeneration of transected axons in cultured sympathetic ganglia; format: cell-based, rat; design: development of the axonal beading appearance / disintegration of transected axons into debris: dose or concentration left out as unconfirmed; conditions: for time post-axotomy until degeneration is shown: untreated transected axons: early signs 8 hr post-axotomy; for protective effect on Wallerian degeneration: added to sympathetic cultures prior to axotomy, EGTA 2 mM
Description: Inhibiting the ubiquitin-proteasome pathway delays Wallerian degeneration. Wallerian degeneration in most transected mammalian nerve fibers is a complex sequence that entails degradation of the axon, changes in the ensheathing and glial cells, alterations in the blood-tissue barriers, and responses of macrophage-lineage cells (reviewed by Griffin et al., 1995). To study the underlying mechanisms involved in the axon degeneration process, we have used the degeneration of transected axons from cultured primary neurons as models (Buckmaster et al., 1995; George et al., 1995; Wang et al., 2001). In cultured sympathetic ganglia derived from postnatal day 3 (p3) rats, soma-deprived axons undergo a typical degenerative process (herein, George et al., 1995; Wang et al., 2001). The severed axons first appear normal for 6-10 hr, depending upon the duration of culturing prior to axotomy. For sympathetic ganglia that have been cultured for 5 days, the severed axons begin to develop such signs of early degeneration as focal swelling and beading approximately 8 hrs after the axons had been separated from their cell bodies. In most cases, the axons would be completely degenerated and detached after 12-16 hr post-axotomy. Similar degenerative processes were also observed in other types of cultured neurons, such as chicken dorsal root ganglion neurons and retinal ganglion cells.
We examined whether UPS is involved in axotomy-triggered Wallerian degeneration by using specific pharmacological inhibitors. It is known that for UPS to degrade a specific substrate protein, the sequential action of three enzymes, including a ubiquitin activating enzyme (E1), a ubiquitin conjugating enzyme (E2), and a ubiquitin ligase (E3), is required to covalently link ubiquitin to the substrate. Poly-ubiquitinated proteins are then targeted for degradation by the 26S proteasome, which is composed of two 19S proteasome regulatory particles and a 20S core. Substrate ubiquitination may also be reversed by ubiquitin proteases (reviewed by Weissman, 2001). In spite of the existence of multiple E2 and E3 molecules, the final and common step in degrading polyubiquitinated protein substrates is through the 26S proteasome machinery. Consistent with previous evidence for the existence and functioning of the UPS in axons (Campbell and Holt, 2001, 2003), components of UPS machinery, such as subunit C2 of the proteasome 20S, were found in both intact and transected axons from sympathetic neurons. Thus, to perturb UPS activity we used two mechanistically different proteasome inhibitors, MG132, a peptide-based reversible proteasome inhibitor (Rock et al., 1994), and lactacystin, a […] irreversible proteasome inhibitor (Fenteany et al., 1995), both of which had been extensively used to inhibit UPS activity in many different cell types including cultured neurons (Campbell and Holt, 2001, 2003).
24 hr post-axotomy when most of the axon debris has detached from the culture surface in control cultures, proteasome inhibitor-treated explants still retained many axons with some degeneration signs, which remained up to 36 hr post-axotomy.
8 hr post-axotomy, approximately 90% of axons from control HSV-infected explants, and only about 40% of axons from HSV-UBP2-infected ones, developed a beading appearance. However, the protective effects of UBP2 overexpression were less robust than those of the proteasome inhibitors, presumably due to the low expression levels of UBP2.
As previous studies have implicated calpains, a class of calcium-dependent proteases, in Wallerian degeneration (George et al., 1995; Finn et al., 2000), we also examined the contribution of calpain activity in our assays with specific calpain inhibitors such as ALLN (Finn et al., 2000). […] 16 hr after axotomy when most of the transected axons from control cultures degenerated into debris, there were still remaining axon fibers in ALLN-treated cultures.

[2] = system: microtubules and neurofilaments of transected axons; assay: Breakdown of axonal cytoskeleton (microtubules, neurofilaments) in transected axons, immunostaining and Western blotting; format: cell-based, rat
Description: Microtubule destabilization at the initiation stage of Wallerian degeneration in vitro. We next examined which cellular events might correlate with the involvement of UPS and calpains in Wallerian degeneration. We monitored the integrity of different subcellular organelles in the transected axons by both immunocytochemistry and membrane labeling. […] At the protein level, we observed a corresponding cleavage of the neurofilament subunits, neurofilament 160 (NF-160) and neurofilament 68 (NF68) as detected by Western blotting.
Apart from these axonal markers, however, the earliest detectable change appears to occur in the microtubules of transected axons. […] After 12 hr post-axotomy, the stained signals of fragmented microtubule structures weakened gradually and were replaced by many spheroid bodies in severed axons. By 16 hr after axotomy, almost all of the detected signals were spheroid bodies along the tracts of original axons. Even 16 hrs after axotomy when the majority of the axonal NF160 and NF68 has been degraded, most of the tubulin proteins still remained intact and the protein level remained stable according to Western blotting. To provide additional biochemical evidence for such an axotomy-elicited microtubule destabilization in transected axons at early stages of Wallerian degeneration, we separated monomeric (soluble, S) and polymerized (pellet, P) tubulins from transected axons and measured the depolymerization ratio (S/[S+P]) at different time points.
UPS and calpains mediate the breakdown of axonal cytoskeleton components. To explore the link between these cellular and molecular changes during Wallerian degeneration, we next examined whether proteasome inhibitors, calpain inhibitors, and EGTA affect neurofilaments and microtubules in transected axons. […] On the other hand, ALLN only delayed neurofilament degradation, but not the fragmentation of microtubules.

[3] = system: corticospinal tract (CST) after midthoracic spinal cord transection with human Schwann cell grafts; assay: Corticospinal Tract (CST) Regeneration Assay; format: in vivo, adult nude rat; design: key: dramatically reduce (+++ or ++++) axonal degeneration; dramatically reduce (+++ or ++++) axonal degeneration; conditions: inhibitor in fibrin glue; thirty-five days after grafting
Protocol: Corticospinal Tract (CST) Regeneration Assay. Proteasome inhibitors are assayed for their ability to improve corticospinal tract (CST) regeneration following thoracic spinal cord injury by promoting CST regeneration into human Schwann cell grafts in the methods of Guest et al. (1997, supra). […] Inhibitors are incorporated into a fibrin glue and placed in the same region. Anterograde tracing from the motor cortex using the dextran amine tracers, Fluororuby (FR) and biotinylated dextran amine (BDA), are performed. Thirty-five days after grafting, the CST response is evaluated qualitatively by looking for reduced degeneration of CST fibers in or beyond grafts and quantitatively by constructing camera lucida composites to determine the sprouting index (SI), the position of the maximum termination density (MTD) rostral to the GFAP-defined host/graft interface, and the longitudinal spread (LS) of bulbous end terminals. The latter two measures provide information about axonal die-back.

transected optic nerve = assay: Wallerian degeneration of transected optic nerve in vivo (gelfoam at lesion site); design: species or system mice; conditions: gelfoam pre-soaked with 50 mM MG132; 3 days post-axotomy; immunostaining
Description: MG132 slows down Wallerian degeneration of transected optic nerve in vivo. To assess whether these observations from in vitro culture experiments hold true in vivo, we first performed immunostaining experiments to examine the alterations of microtubules and neurofilaments in transected optic nerves. […] In optic nerves 3 days after axotomy when an antibody against NF160 still detected many linear neurofilament fibers, the antibody against a neuron specific b-tubulin detected largely spheroid bodies, reminiscent of the microtubule changes observed in vitro 16 hr post-axotomy. […] To examine whether proteasome inhibitors would retard Wallerian degeneration in vivo, we applied gelfoams pre-soaked with vehicle (PBS) or MG132 to the lesion sites and examined the transected optic nerves 3 days post-axotomy by immunostaining. Our experimental procedures were adapted from Meyer et al. (1994). In brief, adult mice were anesthetized by an intraperitoneal injection of ketamine (100 mg/kg) and xylazine (20 mg/kg). An incision was then made in the conjunctiva above the left orbit. The optic nerve was exposed under an operating microscope, and its dura opened longitudinally. […] At determined days after nerve crush, the animals were given a lethal dose of anesthesia and perfused through the heart with cold saline plus heparin followed by 4% paraformaldehyde. […]

[4] = system: NGF-deprived sympathetic neurons; assay: Neurite degeneration in NGF-deprived sympathetic neurons; format: cell-based; conditions: 36 hr after NGF deprivation; for death of cell bodies after NGF deprivation: Hoechst 33258 nuclei staining
Description: Proteasome inhibitors also delay neurite degeneration in NGF-deprived sympathetic neurons. In addition to transected axons, axons from neurons that have been deprived of their physiological trophic factors may also undergo a Wallerian-like degeneration process (reviewed by Raff et al., 2002). If the distal part of an axon of a cultured sympathetic neuron is locally deprived of NGF, that part of the axon degenerates while the rest of the cell and axon survives (Campenot, 1982). Moreover, it has been shown that such an NGF deprivation-triggered axon degeneration is delayed in the sympathetic neurons from Wld^s mice (Deckwerth and Johnson, 1994). We thus decided to investigate whether UPS is also involved in NGF deprivation-triggered axon degeneration. Consistent with previous studies (for example, Deckwerth and Johnson, 1994), 36 hr after NGF deprivation, all of the cultured sympathetic neurons underwent a typical apoptosis program with death of cell bodies as detected by nuclei staining with Hoechst 33258 (a few normally stained nuclei are glial cells) and degeneration of axons as indicated by both morphological criteria and immunostaining.

[5] = system: axons of cultured neurons; assay: Induction of axon degeneration by cytoskeleton-disrupting agent; format: cell-based
Description: Thus, among the three major polymer components of the axon cytoskeleton, microtubules play a particularly important role in maintaining the integrity of axons. Consistent is the observation of microtubule disruption as the earliest detectable change during the physiological process of axon pruning in Drosophila metamorphosis (Watts et al., 2003).

[6] = system: axons of cultured neurons; assay: Axon degeneration elicited by calcium ionophore A23187 or ionomycin; format: cell-based

`CC(=O)N[C@@H](CSC(=O)[C@]1([C@@H](O)C(C)C)NC(=O)[C@H](C)[C@@H]1O)C(=O)O` [Lactacystin] was tested, and the “time post-axotomy until degeneration is shown” value [1] was 16 h, the “degeneration of all examined subcellular markers (destabilization of microtubules and cleavage of neurofilaments)” value ([2]; transected axons) was “profoundly retarded” and the “Reduce Degeneration” value [3] was “+++”.

For `CCC[C@@H](C=O)NC(=O)[C@H](CC(C)C)NC(=O)[C@H](CC(C)C)NC(=O)OCc1ccccc1` [MG-115, Carbobenzoxy-L-leucyl-L-leucyl-L-norvalinal] (Cbz-Leu-Leu-[Nva]-aldehyde), the “Reduce Degeneration” value [3] was “++++”.

`CCCC[C@@H](C=O)NC(=O)[C@H](CC(C)C)NC(=O)[C@H](CC(C)C)NC(C)=O` [MG-101, Ac-Leu-Leu-Nle-CHO] (Ac-Leu-Leu-[Nle]-aldehyde) was tested, and the “development of the axonal beading appearance” value [1] was “did not affect”, the “disintegration of transected axons into debris” value ([1]; 16 hr after axotomy) was “slightly delayed” and the “calpain-dependent degradation of neurofilaments NF160 and NF68” value ([2]; Western blotting) was “completely prevented”. For the same compound, the neurofilament degradation ([2]; transected axons) was “only delayed” and the “Reduce Degeneration” value [3] was “+++”.

`CC(C)C[C@H](NC(=O)[C@H](CC(C)C)NC(=O)[C@H](CC(C)C)NC(=O)OCc1ccccc1)B(O)O` [MG-262, Z-Leu-Leu-Leu-B(OH)2] was tested, and the “Reduce Degeneration” value [3] was “+++”.

For `CC(C)C(O)C12NC(=O)C(C)(C)C1OC2=O` (stereo not drawn) [α-Methylomuralide, α-Methyl clasto-Lactacystin β-Lactone], the “Reduce Degeneration” value [3] was “++++”.

With `CC(C)CC(=O)N[C@H](C(=O)N[C@H](C(=O)N[C@@H](CC(C)C)[C@@H](O)CC(=O)N[C@@H](C)C(=O)N[C@@H](CC(C)C)[C@@H](O)CC(=O)O)C(C)C)C(C)C` [pepstatin.A] (Isovaleryl-VV[Sta]A[Sta]-OH) the “protective effect on Wallerian degeneration” value (“protective effect” for short) [1] was “did not result in any detectable protective effect”.

In the case of `CC(C)C[C@@H](C=O)NC(=O)[C@H](CC(C)C)NC(=O)[C@H](CC(C)C)NC(=O)OCc1ccccc1` [MG-132, Carbobenzoxy-L-leucyl-L-leucyl-L-leucinal] (Cbz-Leu-Leu-Leu-aldehyde), the “time post-axotomy until degeneration is shown” value [1] is reported as 16 h, the “degeneration of all examined subcellular markers (destabilization of microtubules and cleavage of neurofilaments)” value ([2]; transected axons) is reported as “profoundly retarded” and the “breakdown of microtubules, neurofilaments and axolemma in transected optic nerves” value (transected optic nerve) is reported as “significantly slowed”. For the same compound, the “axon (neurite) degeneration after NGF deprivation” value [4] was “the majority of the axons were still intact”, the “death of cell bodies after NGF deprivation” value [4] was “still showed clear apoptotic staining” and the “Reduce Degeneration” value [3] was “+++”.

With `CC(C)[C@H](O)[C@@]12NC(=O)[C@H](C)[C@@H]1OC2=O` [PS-519, clasto-Lactacystin β-Lactone] the “Reduce Degeneration” value [3] was “++++”.

With `CC(C)C[C@H](NC(=O)[C@H](Cc1ccccc1)NC(=O)c1cnccn1)B(O)O` [PS-341, bortezomib] the “Reduce Degeneration” value [3] was “++++”.

`C/C1=C/C(=O)O[C@@H]2C[C@@H](CC[C@H](C)/C=C\CC1)O[C@@](O)([C@@H]1CSC(=O)N1)C2` [latrunculin B] was tested, and the “induction of axon degeneration” value [5] was “failed to induce axon degeneration”.

For `COC(=O)C[C@H](NC(=O)[C@H](C)NC(=O)[C@@H](NC(=O)OCc1ccccc1)C(C)C)C(=O)CF` [Z-VAD-fmk] (Cbz-Val-Ala-Asp(OMe)-CH2F), the “protective effect” value [1] was “did not result in any detectable protective effect”, the “axon (neurite) degeneration after NGF deprivation” value [4] was “efficiently prevented” and the “death of cell bodies after NGF deprivation” value [4] was “efficiently prevented”.

`O=C(O)CN(CCOCCOCCN(CC(=O)O)CC(=O)O)CC(=O)O` [EGTA] was tested, and the “protective effect” value [1] was “much stronger protective effect”, the “axon degeneration elicited by calcium ionophore A23187 or ionomycin” value [6] was “blocked” and the “degeneration of all examined subcellular markers (destabilization of microtubules and cleavage of neurofilaments)” value ([2]; transected axons) was “profoundly retarded”.
